Results published in US20100248267A1, “METHOD FOR MEASUREMENT OF CONCENTRATION OF ANTIGEN” (JAPAN SCIENCE AND TECHNOLOGY AGENCY, priority 2007, published 2010).

Columns and labels:
[1] = tested on: VH-cpBLA-VL/pET26/BL21 strain; test: Growth assay using VH-cpBLA-VL expressing strain; type: cell-based, E. coli; settings: 100 μg/ml ampicillin LB medium
Method: Also, for the growth assay, ICP which is the target antigen of this antibody-enzyme fusion protein, and the thiacloprid (TCP) which is an analog of ICP with a lower cross-reactivity than ICP were used. In further detail, the assay was performed by the following procedures.
First, the strain expressing VH-cpBLA-VL (antibody-enzyme fusion protein) was prepared.
0.5 μg of VH-cpBLA-VL/pET26 was used for transformation of 100 μl of the BL21 (DE3, pLysS) strain (F-, ompT, hsdSB, (rB-, mB-), dcm, gal, λ(DE3), pLysS, Cmr), and the transformed cells were cultured on an LB agar medium plate containing 50 μg/ml of kanamycin and 37 μg/ml of chloramphenicol at 30° C. overnight, to prepare an antibody-enzyme fusion protein expressing strain (VH-cpBLA-VL/pET26/BL21 strain). After the overnight culture, colonies generated on the above-mentioned LB agar medium plate were picked with a toothpick, inoculated and cultured in a 4 ml of the LB liquid culture medium plate containing 50 μg/ml of kanamycin and 37 μg/ml of chloramphenicol at 27° C. overnight. 4 μl of this pre-cultured medium was inoculated and cultured in 4 ml of the LB liquid culture medium containing 50 μg/ml of kanamycin and 37 μg/ml of chloramphenicol, 1 mM of IPTG, 0 or 100 μg/ml ampicillin, 0 to 10 ng/ml of ICP or TCP at 27° C. for 33 hours, with measuring the time course of turbidity change using Mini photo 518R at 660 nm.

[2] = tested on: VH-split•cpBLA-VL/pET26/C43 strain; test: Growth assay using VH-split•cpBLA-VL expressing strain; type: cell-based, E. coli
Method: (§1) By applying the assay of the above-mentioned Example 6, VH-split•cpBLA-VL/pET26 was used instead of VH-cpBLA-VL/pET26, and the E. coli C43 (DE3) strain (Lucigen Corporation) suitable for overexpression of a highly toxic protein was used instead of the BL21 (DE3, pLysS) strain, to investigate the expression in the strains. To be specific, 0.5 μg of VH-split•cpBLA-VL/pET26 was used for transformation for the C43 (DE3) strain, and the transformed cells were cultured on a LB agar medium plate containing 50 μg/ml of kanamycin at 30° C. overnight, and the VH-split•cpBLA-VL expressing strain (VH-split•cpBLA-VL/pET26/C43 strain) was prepared. After overnight culture, the colonies generated on the above-mentioned LB agar medium plate were picked with a toothpick, inoculated and cultured in a 4 ml of the LB liquid medium containing 50 […] (LBK) at 27° C. overnight. 10 μl of this pre-cultured medium was inoculated in 1 ml of the LBK liquid medium containing 1 mM of IPTG, 0 or 10 μg/ml of ampicillin, 10 ng/ml of ICP or TCP. After the cells were cultured at 27° C. for 45 hours, the turbidity was measured using Mini photo 518R at 660 nm.

[3] = tested on: antibody-enzyme fusion protein (VH-cpBLA-VL(219)); test: Activity assay of VH-cpBLA-VL(219) using Fluorocillin; type: biochemical; settings: triplicate; for change in signal intensity (fluorescence): antigen final concentration 1 μg/ml, compared with PBS
Method: Activity of the above prepared antibody-enzyme fusion protein (VH-cpBLA-VL(219)) was assayed using Fluorocillin. The antigen peptide BGP-C7 at a final concentration of 0-2000 ng/ml and the antibody-enzyme fusion protein at a final concentration of 300 nM were mixed in 50 μl of PBS, and the mixture was dispensed into black microplate wells. After adding 50 μL of 2 μM Fluorocillin in PBS, the mixture was incubated at 28° C. for 60 minutes, and read for its fluorescence intensity (intensity at 535 nm with excitation light irradiation at 485 nm). Also, control experiments were performed without antibody-enzyme fusion protein, and the fluorescence intensity of these wells was used for background subtraction. […] For information, the measurement of the present experiment was performed in triplicate. Black circles in FIG. 14 indicate the average value of the measured values and the error bars indicate 1SD.
Further, similar experiments were performed using a substance other than BGP-C7 (BGP-C8, BGP-C10, ICP, TCP with each final concentration of 1 μg/ml) as antigens.

[4] = tested on: antibody-enzyme fusion protein (VH-cpBLA-VL); test: β-lactamase activity change of VH-cpBLA-VL with chromogenic substrate Nitrocefin; type: biochemical; settings: 5 μl of 10 μg/ml antigen, 1 mM Nitrocefin, room temperature 18 hours
Method: First, 5 μl of the concentrated VH-cpBLA-VL protein solution prepared in Example 9, 5 μl of 10 μg/ml ICP or TCP, and 90 μl of PBS containing 1 mM of Nitrocefin were mixed, and left in a dark place at a room temperature for 18 hours. Then, the absorbance at 490 nm of the reaction solution was measured to investigate the change in the β-lactamase activity. Further, absorbance at 490 nm was also measured when PBS was used instead of ICP or TCP (the item “PBS” in FIG. 12), or when VH-cpBLA-VL protein solution was not added (the item “Nitrocefin” in FIG. 12). […] In other words, the ICP-dependent increase of β-lactamase activity was observed.

[5] = tested on: antibody-enzyme fusion protein (VH-cpBLA-VL); test: β-lactamase activity change of VH-cpBLA-VL with fluorogenic substrate Fluorocillin; type: biochemical; settings: 5 μl of 10 μg/ml antigen, 10 μM Fluorocillin, room temperature 30 minutes
Method: Next, a similar experiment was performed using a fluorogenic substrate Fluorocillin instead of the chromogenic substrate Nitrocefin. Specifically, 5 μl of concentrated VH-cpBLA-VL protein solution prepared in Example 9, and 5 of 10 μg/ml ICP or TCP were mixed, and incubated at 4° C. for 30 minutes. Then, 90 μl of PBS containing 10 μM Fluorocillin was added, and incubated at a room temperature for 30 minutes. The fluorescence at 535 nm with 435 nm excitation was measured using a microplate reader Genios Pro (Tecan Japan Co., Ltd.). […] In other words, the increase of the ICP-dependent β-lactamase activity was observed.

[6] = tested on: wild-type BL21 (DE3, pLysS) strain; test: Toxicity test of ICP in E. coli (growth curve, turbidity at 660 nm); type: cell-based; settings: 100 ng/ml ICP, LB medium, 27° C. overnight, versus medium without ICP
Method: The BL21 (DE3, pLysS) strain was cultured at 30° C. overnight on an LB agar medium plate containing 37 μg/ml of chloramphenicol. The generated colonies were picked with a toothpick, inoculated and cultured in a 4 ml of the LB liquid culture medium containing 37 μg/ml of chloramphenicol at 27° C. overnight. 40 μl of this pre-cultured medium was inoculated and cultured in a 4 ml of the liquid culture medium containing 37 μg/ml of chloramphenicol and 100 ng/ml of ICP at 27° C. overnight, with measuring the time course of turbidity change using Mini photo 518R (TAITEC CORPORATION) at 660 nm.

[7] = ELISA for antigen binding ability of the antibody-enzyme fusion protein; settings: ICP-BSA versus BSA coated plates
Method: The following ELISA assay was performed to confirm whether the antibody-enzyme fusion protein (VH-cpBLA-VL) actually has a binding activity to the antigen (ICP).
PBS solution containing 10 μg/ml of ICP-BSA or BSA was dispensed into Falcon 3912 microplates by 100 μl each, and left at 4° C. for 16 hours. After discarding the solution from the microplates, 200 μl of PBS including 25% of Immunoblock was added and left at a room temperature for 2 hours for blocking. Next, after washing the microplates with PBS-T, […] of the purified antibody-enzyme fusion protein (VH-cpBLA-VL) prepared in the above-mentioned Example 9 and 100 μl of PBS containing 5% Immunoblock were added, and left at a room temperature for 90 minutes. In order to detect the antibody-enzyme fusion protein (VH-cpBLA-VL) bound to the solid-phase by the above preparation, the microplates were washed with PBS-T, and added with HRP labeled Penta-His (QIAGEN K.K., Tokyo) diluted in 1/2000 in PBS containing 5% Immunoblock. […] After incubation for 5 minutes in a dark place, the reaction was stopped by adding 50 μl of 3.2 N of H2SO4, and the absorbance was measured with a platereader (450 nm).
Also, the above-mentioned ELISA was applied for VH-split•cpBLA-VL(VH-BLAc and BLAn-VL) or cpBLA instead of using VH-cpBLA-VL, and the absorbance was measured similarly. […]

[8] = tested on: cpBLA/pET26/BL21 strain or cpBLA/pET26/C43 strain; test: Growth assay using cpBLA expressing strain; type: cell-based, E. coli
Method: as §1

[9] = less than 100 μg/ml ICP or TCP added

## N#C/N=C1\SCCN1Cc1ccc(Cl)nc1 [TCP, thiacloprid]
[1]; TCP, later than ICP of the same concentration
  time after initiation of measurement from which growth was observed: about 30 hours
[1]; antigen at 10 ng/ml, similar to 1 ng/ml ICP
  growth of expressing strain (turbidity at 660 nm): significant growth
[2]; [9]
  growth of expressing strain (turbidity at 660 nm): no significant growth
[3]
  change in signal intensity (fluorescence): only the same signal intensity as PBS
[4]
  change in β-lactamase activity (absorbance at 490 nm): slight significant signal increase

## BGP-C7: antigen peptide (osteocalcin C-terminal peptide) recognised by antibody KTM219 (RRFYGPV)
[3]; antigen 0-2000 ng/ml, 300 nM fusion protein, dose-dependent
  change in fluorescence intensity (535 nm): significant increase of the fluorescence intensity

## BGP-C8: BGP peptide detectable by open sandwich ELISA with KTM219 (YRRFYGPV)
[3]
  change in signal intensity (fluorescence): increase of the signal intensity

## O=[N+]([O-])NC1=NCCN1Cc1ccc(Cl)nc1 [ICP, imidacloprid]
[5]
  change in β-lactamase activity (fluorescence at 535 nm): significant signal increase
[1]; ICP at 1 ng/ml
  time after initiation of measurement from which growth was observed: about 30 hours
[1]; antigen at 1 ng/ml
  growth of expressing strain (turbidity at 660 nm): dose-dependent growth
[1]; antigen at 5 to 10 ng/ml
  growth of expressing strain (turbidity at 660 nm): dose-dependent growth
[6]
  toxicity or growth-promoting activity in E. coli: no toxicity or growth-promoting activity
[2]; 10 μg/ml ampicillin, 10 ng/ml antigen, 27° C., 45 hours
  growth of expressing strain (turbidity at 660 nm): ICP dependent-growth
[2]; [9]
  growth of expressing strain (turbidity at 660 nm): no significant growth
[3]
  change in signal intensity (fluorescence): only the same signal intensity as PBS
[4]
  change in β-lactamase activity (absorbance at 490 nm): significant signal increase

## BGP-C10: BGP peptide detectable by open sandwich ELISA with KTM219 (EAYRRFYGPV)
[3]
  change in signal intensity (fluorescence): increase of the signal intensity

B1: cpBLA: circularly permutated β-lactamase without antibody domains (SEQ ID NO: 13), control (protein, listed as Escherichia coli)
chain: NEAIPNDERDTTMPAAMATTLRKLLTGELLTLASRQQLIDWMEADKVAGPLLRSALPAGWFIADKSGAGERGSRGIIAALGPDGKPSRIVVIYTTGSQATMDERNRQIAEIGASLIKHWDKSHPETLVKVKDAEDQLGARVGYIELDLNSGKILESFRPEERFPMMSTFKVLLCGAVLSRIDAGQEQLGRRIHYSQNDLVEYSPVTEKHLTDGMTVRELCSAAITMSDNTAANLLLTTIGGPKELTAFLHNMGDHVTRLDRWEPELNEA
[7]
  ELISA signal regardless of the presence or absence of ICP (antigen): similarly low signal
[8]; ampicillin added
  growth of expressing strain: growth was not observed in any of the samples
[8]; ampicillin not added
  growth of expressing strain: growth was observed regardless of the presence or absence of the antigen
[8]; any of the cpBLA expressing strains
  antigen-dependent growth: antigen-dependent growth was not observed
